Laboratory results published in ChEMBL document CHEMBL1147513, “Sensitivity of neuronal nicotinic acetylcholine receptors to the opiate antagonists naltrexone and naloxone: receptor blockade and up-regulation” (Bioorg Med Chem Lett, 2004).
pIC50: −log10 of the molar value.

How the values were obtained:
HEK293 [1] = experiment: Decay-time constant of ACh ([…])-evoked currents in the presence of 300 uM naltrexone in HEK293 cells; assay type: functional, Homo sapiens
HEK293 [2] = experiment: Decay-time constant of ACh ([…])-evoked currents in the presence of 30 uM naltrexone in HEK293 cells; assay type: functional, Homo sapiens
HEK293 [3] = experiment: Decay-time constant of ACh ([…])-evoked currents in the presence of 1 uM naltrexone in HEK293 cells; assay type: functional, Homo sapiens
HEK293 [4] = experiment: Decay-time constant of ACh ([…])-evoked currents in the presence of 3 uM naltrexone in HEK293 cells; assay type: functional, Homo sapiens
HEK293 [5] = experiment: Decay-time constant of ACh ([…])-evoked currents in the presence of 100 uM naltrexone in HEK293 cells; assay type: functional, Homo sapiens
HEK293 [6] = experiment: Decay-time constant of ACh ([…])-evoked currents in the presence of 0.1 uM naltrexone in HEK293 cells; assay type: functional, Homo sapiens
HEK293 [7] = experiment: Decay-time constant of ACh ([…])-evoked currents in the presence of 0.3 uM naltrexone in HEK293 cells; assay type: functional, Homo sapiens
HEK293 [8] = experiment: Decay-time constant of ACh ([…])-evoked currents in the presence of 10 uM naltrexone in HEK293 cells; assay type: functional, Homo sapiens
HEK293 [9] = experiment: Decay-time constant of ACh (100 uM) -evoked currents in the absence of naltrexone in HEK293 cells; assay type: functional, Homo sapiens
[10] = target: T1, Neuronal acetylcholine receptor subunit alpha-4 (Rattus norvegicus, UniProt P09483); experiment: Blockage of Nicotinic acetylcholine receptor alpha4-beta2 noncompetitively in acute hippocampal slices; assay type: tissue-based, Hippocampus
T1 sequence (P09483 whole entry): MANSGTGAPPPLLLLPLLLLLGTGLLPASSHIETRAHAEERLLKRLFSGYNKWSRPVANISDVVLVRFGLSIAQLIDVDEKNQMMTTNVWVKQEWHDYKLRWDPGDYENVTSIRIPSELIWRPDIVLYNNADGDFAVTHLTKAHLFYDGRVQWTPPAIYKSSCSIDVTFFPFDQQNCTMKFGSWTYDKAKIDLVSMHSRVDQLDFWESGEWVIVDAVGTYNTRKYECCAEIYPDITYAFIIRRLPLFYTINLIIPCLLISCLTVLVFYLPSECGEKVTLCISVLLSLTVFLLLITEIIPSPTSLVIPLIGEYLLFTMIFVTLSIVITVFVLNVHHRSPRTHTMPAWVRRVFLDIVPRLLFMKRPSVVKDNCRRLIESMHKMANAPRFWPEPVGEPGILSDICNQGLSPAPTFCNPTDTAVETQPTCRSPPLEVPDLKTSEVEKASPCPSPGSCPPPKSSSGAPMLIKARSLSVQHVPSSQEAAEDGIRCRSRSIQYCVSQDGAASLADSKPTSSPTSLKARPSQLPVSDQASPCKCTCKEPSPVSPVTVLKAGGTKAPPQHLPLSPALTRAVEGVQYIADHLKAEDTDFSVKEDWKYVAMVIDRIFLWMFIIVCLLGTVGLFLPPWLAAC

[11] = target: T2, Neuronal acetylcholine receptor subunit alpha-7 (Homo sapiens, UniProt P36544); experiment: Blockage of Nicotinic acetylcholine receptor alpha-7 noncompetitively in cultured hippocampal neurons; assay type: tissue-based, Hippocampus
T2 sequence (P36544 whole entry): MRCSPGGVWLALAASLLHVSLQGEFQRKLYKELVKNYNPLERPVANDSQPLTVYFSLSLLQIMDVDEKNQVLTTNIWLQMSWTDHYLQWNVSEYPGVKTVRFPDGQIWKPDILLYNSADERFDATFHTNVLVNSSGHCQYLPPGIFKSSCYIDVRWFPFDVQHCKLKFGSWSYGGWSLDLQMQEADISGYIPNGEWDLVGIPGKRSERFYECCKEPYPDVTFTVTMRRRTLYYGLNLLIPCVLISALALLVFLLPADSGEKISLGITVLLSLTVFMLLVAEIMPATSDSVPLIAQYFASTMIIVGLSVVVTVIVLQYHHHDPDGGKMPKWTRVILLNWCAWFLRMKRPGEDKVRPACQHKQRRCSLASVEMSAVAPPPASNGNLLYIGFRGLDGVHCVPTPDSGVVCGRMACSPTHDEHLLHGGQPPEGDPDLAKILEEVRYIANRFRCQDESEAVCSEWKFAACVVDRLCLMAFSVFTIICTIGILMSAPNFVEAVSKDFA

[12] = Increase in the charge carried by ACh- induced currents in […] organotypic hippocampal cultures by naltrexone (0.3 uM); assay type: functional, Hippocampus
[13] = target: T1, Neuronal acetylcholine receptor subunit alpha-4; experiment: Blockage of Nicotinic acetylcholine receptor alpha4-beta2 noncompetitively in CA1 stratum radiatum interneurons
[14] = Increase in the charge carried by choline- induced currents in CA1 pyramidal neurons of […] cultures by naltrexone (0.3 uM); assay type: functional, Pyramidal neuron
[15] = Increase in the charge carried by ACh- induced currents in CA1 pyramidal neurons of […] cultures by naltrexone (0.3 uM); assay type: functional, Pyramidal neuron
[16] = target: T1, Neuronal acetylcholine receptor subunit alpha-4; experiment: Blockage of Nicotinic acetylcholine receptor alpha4-beta2 noncompetitively in cultured hippocampal neurons; assay type: tissue-based, Hippocampus
[17] = Increase in the charge carried by choline- induced currents in […] organotypic hippocampal cultures by naltrexone (0.3 uM); assay type: functional, Hippocampus
[18] = target: T2, Neuronal acetylcholine receptor subunit alpha-7; experiment: Blockage of Nicotinic acetylcholine receptor alpha-7 noncompetitively in hippocampal primary cultures; assay type: tissue-based, Hippocampus

Compound | Decay-time constant (HEK293 [1]) [ms] | Decay-time constant (HEK293 [2]) [ms] | Decay-time constant (HEK293 [3]) [ms] | Decay-time constant (HEK293 [4]) [ms] | Decay-time constant (HEK293 [5]) [ms] | Decay-time constant (HEK293 [6]) [ms] | Decay-time constant (HEK293 [7]) [ms] | Decay-time constant (HEK293 [8]) [ms] | Decay-time constant (HEK293 [9]) [ms] | pIC50 [10] | pIC50 [11] | Increase [12] [%] | pIC50 [13] | Increase [14] [%] | Increase [15] [%] | pIC50 [16] | Increase [17] [%] | pIC50 [18]
CC(=O)OCC[N+](C)(C)C [ACETYLCHOLINE] | 202.53 | 422.02 | 543.11 | 508.74 | 257.74 | 509.96 | 495.98 | 467.84 | 547.88 | – | – | – | – | – | – | – | – | –
O=C1CC[C@@]2(O)[C@H]3Cc4ccc(O)c5c4[C@@]2(CCN3CC2CC2)[C@H]1O5 [NALTREXONE] | – | – | – | – | – | – | – | – | – | 4.51 | 4.52 | 214 | 3.85 | 210 | 169 | 3.86 | 283 | 4.60
